Patent US20100215710A1, “Beta-2 Adrenergic Receptor Agonists and Antagonists and Modulation of Wound Healing” (The Regents of the University of California, priority 2005, published 2010)

Key:
Assay type in all cases: cell-based
adult human CECs [1] = experiment: Immunofluorescent staining of actin and vinculin, adult human CECs
Description: Sterile glass cover slips were transferred into 12 well dishes and collagen-coated with 60 μg/ml collagen I in PBS for 1 hour at 37° C. Cover slips were washed three times with CGM and 3×10^4 adult human CECs were added per well and allowed to attach for 3 hours or overnight. Cells were untreated (control […]), treated with 20 μM β-AR antagonist, 10 nM or 1 μM β-AR agonist for 15 minutes, 100 nM OA for 45 minutes, or pre-treated with 100 nM OA for 30 minutes prior to the addition of 10 nM or 1 μM β-AR agonist for 15 minutes. […]
Cells plated in the absence of β-AR agonist are polarized and crescent shaped with a broad lamellipodium, characteristic of the migratory phenotype (Ridley et al. (2003) “Cell migration: integrating signals from front to back” Science 302:1704-9). […] Image J was used to measure the actin and vinculin associated fluorescence by measuring the mean pixel intensity (MPI) of 25 cells from each condition. Control cells have an MPI of 40.3+/−4.8. β-AR agonist treatment has no significant effect on actin and vinculin associated fluorescence; the MPI of β-AR agonist-treated cells is 44.6+/−2.

human keratinocytes = experiment: Keratinocyte proliferation assay (β-AR agonist, OA)
Description: Keratinocytes were released from the tissue culture plate by treatment with 0.25% trypsin/EDTA (Gibco, Grand Island, N.Y.), resuspended in KGM and counted using a haemocytometer. Cells were either untreated or pre-treated with okadaic acid (OA) (10 nM) for 45 minutes prior to β-AR agonist (1 μM) addition. 5×10^4 cells were plated per well in a 12 well plate in triplicate in the presence or absence of 1 μM β-AR agonist, 10 nM OA or both. Triplicate wells were harvested and counted on days 2, 4, 6, 8. The medium was changed every day. Significance was taken as p<0.01, using Student's t test (unpaired) to compare the means of the cell populations.
5×10^4 […] keratinocytes were plated per well in a 12 well plate in triplicate in the presence or absence of β-AR agonist (1 μM) (FIG. 2 Panel A; control represented by circles, 1 μM β-AR agonist by squares), or pre-treated with 10 nM OA for 30 minutes prior to the addition of OA alone or both OA and β-AR agonist, (FIG. 2 Panel B; OA represented by X's and OA/β-AR agonist by stars). Cells were harvested and counted on days 2, 4, 6, 8 as described. The data are representative of three independent experiments with at least two different keratinocyte strains. Values plotted are means+/−SEM. *P<0.01 between β-AR agonist and controls.

adult human CECs [2] = experiment: Single cell migration assay, adult human corneal epithelial cells
Description: Glass bottomed 35 mm dishes (MatTek Corporation, Ashland, Mass.) were coated with collagen I (60 μg/ml) (Cohesion Technologies, Palo Alto, Calif.) in PBS for 1 hour at 37° C. Adult human CECs were plated at a density of 50 cells/mm^2 for 2 hours at 37° C. Cells were pre-incubated with either CGM alone or CGM containing 100 nM okadaic acid (OA) for 45 minutes at 37° C. Untreated cells were then incubated with CGM alone (control) or with CGM containing either 20 μM β-AR antagonist, 10 nM or 1 μM β-AR agonist. Pre-treated cells were stimulated with 100 nM OA alone or both 10 nM or 1 μM β-AR agonist and 100 nM OA at time 0. The 35 mm glass-bottomed dishes were placed in a heating chamber, designed to maintain the media between 35-37° C., secured to the stage of an inverted Nikon Diaphot microscope. Individual cell migration was monitored over a 1 hour period at 37° C., as described previously (Pullar and Isseroff (2005b) “Cyclic AMP mediates keratinocyte directional migration in an electric field” J Cell Sci 118:2023-2034). […] After each cell's center of mass was tracked using the Open Lab software, migration speed and distance were calculated and imported to Excel (Microsoft Corporation, Redmond, Wash.). […]

C=C1[C@@H](O)[C@@H]2O[C@]3(CC[C@H](/C=C/[C@@H](C)[C@@H]4CC(C)=C[C@@]5(O[C@H](C[C@@](C)(O)C(=O)O)CC[C@H]5O)O4)O3)CC[C@H]2O[C@@H]1[C@@H](O)C[C@H](C)[C@H]1O[C@@]2(CCCCO2)CC[C@H]1C [OA, okadaic acid]
effect on cytoskeletal organization (adult human CECs [1]; OA 100 nM alone): no effect | effect on β2-AR-mediated alterations in cytoskeletal organization (adult human CECs [1]; OA 100 nM pre-treatment prior to β-AR agonist 10 nM): prevents | effect on keratinocyte proliferation (human keratinocytes; OA 10 nM alone): no effect | effect on β2-AR-mediated decrease in proliferation (human keratinocytes; OA 10 nM pre-treatment, then OA plus 1 μM β-AR agonist): completely prevents | effect on migration rate (adult human CECs [2]; OA 100 nM alone): no effect | effect on β-AR agonist-mediated decrease in migration rate (adult human CECs [2]; OA 100 nM pre-treatment, then OA plus β-AR agonist): completely prevents
